For the first test, the system named is P. Falciparum NF54. Briefly: Plasmodium falciparum in vitro assay ([3H]-hypoxanthine incorporation). The format is cell-based. Conditions: P. Falciparum NF54, erythrocytic stages in human red blood cells, 50% human serum. The procedure:
In Vitro Antimalarial Activity: Plasmodium falciparum In Vitro Assay: In vitro activity against erythrocytic stages of P. Falciparum in human red blood cells is determined using a [^3H]-hypoxanthine incorporation assay. One strain sensitive to all drugs (P. […] After 48 hours, [^3H]-hypoxanthine (0.5 μCi) is added to each well of a plate. The plates are incubated for a further 24 hours under the same conditions then harvested with a Betaplate cell harvester (Wallac) and washed with distilled water. The dried filters are inserted into a plastic foil with 10 mL of scintillation fluid and counted in a Betaplate liquid scintillation counter. IC50 values are calculated from sigmoidal inhibition curves using Microsoft Excel.
A word on the IC50: it is the concentration that gives 50% inhibition. In turn, `CN1CCC(N2CCC(N(Cc3ccc(N(C)c4ccncc4)cc3)C(=O)/C=C/c3ccc(C(F)(F)F)cc3)C(F)C2)CC1` (racemic) [Example 78, (±)-(E)-N-(cis-3-fluoro-1′-methyl-[1,4′-bipiperidin]-4-yl)-N-(4-(methyl(pyridin-4-yl)amino)benzyl)-3-(4-(trifluoromethyl)phenyl)acrylamide] came in with an IC50 of 12 nM. `CN1CCC(N2CCC(N(Cc3ccc(N(C)c4ccncc4)cc3)C(=O)/C=C/c3ccc(C(F)(F)F)cc3)C(F)C2)CC1` (racemic) [Example 79, (±)-(E)-N-(trans-3-fluoro-1′-methyl-[1,4′-bipiperidin]-4-yl)-N-(4-(methyl(pyridin-4-yl)amino)benzyl)-3-(4-(trifluoromethyl)phenyl)acrylamide] had an IC50 of 21 nM. Compound `CN1CCC(N2C[C@H]3CC(N(Cc4ccc(N(C)c5ccncc5)cc4)C(=O)/C=C/c4ccc(C(F)(F)F)cc4)C[C@H]3C2)CC1` (single isomer, unassigned) [Example 64] registered an IC50 of 12 nM.

`CN(c1ccncc1)c1ccc(CN(C(=O)/C=C/c2ccc(C(F)(F)F)cc2)C2C[C@@H]3CN(C4CCCC4)C[C@@H]3C2)cc1` (single isomer, unassigned) [Example 66]: half-maximal inhibition (IC50) required 14 nM. With `CC(C)CCN1C[C@H]2CC(N(Cc3ccc(N(C)c4ccncc4)cc3)C(=O)/C=C/c3ccc(C(F)(F)F)cc3)C[C@H]2C1` (single isomer, unassigned) [Example 68], it took 17 nM to reach half-maximal inhibition (IC50). This IC50 and that of the compound before are within 1.5-fold of each other.

In the case of `CN(c1ccncc1)c1ccc(CN(C(=O)/C=C/c2ccc(C(F)(F)F)cc2)[C@H]2CCCNC2)cc1` [Example 2, (E)-N-[4-(Methyl-pyridin-4-yl-amino)-benzyl]-N-(S)-piperidin-3-yl-3-(4-trifluoromethyl-phenyl)-acrylamide], the IC50 is 82 nM.

Still in this test, the particulars now being: Plasmodium falciparum, Erythrocyte, P. Falciparum NF54, erythrocytic stages in human red blood cells, 50% human serum.
The compound `CC(c1ccccc1)N1CCC(N(Cc2ccc(N(C)c3ccncc3)cc2)C(=O)/C=C/c2ccc(C(F)(F)F)cc2)CC1` (racemic) [Example 30, (±)-(E)-N-[4-(Methyl-pyridin-4-yl-amino)-benzyl]-N-[1-(1-phenyl-ethyl)-piperidin-4-yl]-3-(4-trifluoromethyl-phenyl)-acrylamide] had an IC50 of 175 nM. This counts as sub-micromolar. Same read-out and setting: the figure for `CN1CCC(N2CCCC(N(Cc3ccc(N(C)c4ccncc4)cc3)C(=O)/C=C/c3ccc(C(F)(F)F)cc3)CC2)CC1` (racemic) [Example 57, (±)-(E)-N-(4-(methyl(pyridin-4-yl)amino)benzyl)-N-(1-(1-methylpiperidin-4-yl)azepan-4-yl)-3-(4-(trifluoromethyl)phenyl)acrylamide] is 18 nM. The compound `CN(c1ccncc1)c1ccc(CN(C(=O)/C=C/c2ccc(C(F)(F)F)cc2)C2CCCN(C3CCCC3)CC2)cc1` (racemic) [Example 60, (±)-(E)-N-(1-cyclopentylazepan-4-yl)-N-(4-(methyl(pyridin-4-yl)amino)benzyl)-3-(4-(trifluoromethyl)phenyl)acrylamide] displayed an IC50 of 79 nM. As to `CC(C)CCN1CCCC(N(Cc2ccc(N(C)c3ccncc3)cc2)C(=O)/C=C/c2ccc(C(F)(F)F)cc2)CC1` (racemic) [Example 63, (±)-(E)-N-(1-isopentylazepan-4-yl)-N-(4-(methyl(pyridin-4-yl)amino)benzyl)-3-(4-(trifluoromethyl)phenyl)acrylamide], the IC50 was 85 nM. The IC50 values of the last two compounds are within 1.5-fold of each other. On the same count and under the same terms, the figure for `CN1CCC(N2CCCCC(N(Cc3ccc(N(C)c4ccncc4)cc3)C(=O)/C=C/c3ccc(C(F)(F)F)cc3)C2)CC1` (racemic) [Example 70, (±)-(E)-N-(4-(methyl(pyridin-4-yl)amino)benzyl)-N-(1-(1-methylpiperidin-4-yl)azepan-3-yl)-3-(4-(trifluoromethyl)phenyl)acrylamide] is 20 nM; for `CN(c1ccncc1)c1ccc(CN(C(=O)/C=C/c2ccc(C(F)(F)F)cc2)C2CCCCN(C3CCCC3)C2)cc1` (racemic) [Example 71, (±)-(E)-N-(1-cyclopentylazepan-3-yl)-N-(4-(methyl(pyridin-4-yl)amino)benzyl)-3-(4-(trifluoromethyl)phenyl)acrylamide] it is 167 nM. Still for that read-out and setting: to `CC(C)CCN1CCCCC(N(Cc2ccc(N(C)c3ccncc3)cc2)C(=O)/C=C/c2ccc(C(F)(F)F)cc2)C1` (racemic) [Example 72, (±)-(E)-N-(1-isopentylazepan-3-yl)-N-(4-(methyl(pyridin-4-yl)amino)benzyl)-3-(4-(trifluoromethyl)phenyl)acrylamide] belongs 152 nM. In turn, `CN(c1ccncc1)c1ccc(CN(C(=O)/C=C/c2ccc(C(F)(F)F)cc2)[C@H]2CCN(C3CCCC3)C[C@H]2F)cc1` (racemic) [Example 76, (±)-(E)-N-(cis-1-cyclopentyl-3-fluoropiperidin-4-yl)-N-(4-(methyl(pyridin-4-yl)amino)benzyl)-3-(4-(trifluoromethyl)phenyl)acrylamide] returned an IC50 of 50 nM. This IC50 lies about 3-fold lower than the previous one.

`CC(C)CCN1CC[C@H](N(Cc2ccc(N(C)c3ccncc3)cc2)C(=O)/C=C/c2ccc(C(F)(F)F)cc2)[C@H](F)C1` (racemic) [Example 77, (±)-(E)-N-(cis-3-fluoro-1-isopentylpiperidin-4-yl)-N-(4-(methyl(pyridin-4-yl)amino)benzyl)-3-(4-(trifluoromethyl)phenyl)acrylamide] displayed an IC50 of 53 nM.

The compound `CN(c1ccncc1)c1ccc(CN(C(=O)/C=C/c2ccc(C(F)(F)F)cc2)[C@@H]2CCN(C3CCCC3)C[C@H]2F)cc1` (racemic) [Example 80, (±)-(E)-N-(trans-1-cyclopentyl-3-fluoropiperidin-4-yl)-N-(4-(methyl(pyridin-4-yl)amino)benzyl)-3-(4-(trifluoromethyl)phenyl)acrylamide] registered an IC50 of 105 nM. The same measure, in the same setting: to `CC(C)CCN1CC[C@@H](N(Cc2ccc(N(C)c3ccncc3)cc2)C(=O)/C=C/c2ccc(C(F)(F)F)cc2)[C@H](F)C1` (racemic) [Example 81, (±)-(E)-N-(trans-3-fluoro-1-isopentylpiperidin-4-yl)-N-(4-(methyl(pyridin-4-yl)amino)benzyl)-3-(4-(trifluoromethyl)phenyl)acrylamide] belongs 122 nM; to `COCC(C)N1CCC(N(Cc2ccc(Nc3ccnc(C)c3)cc2)C(=O)/C=C/c2ccc(C(F)(F)F)cc2)CC1` (racemic) [Example 84, (±)-(E)-N-[1-(2-Methoxy-1-methyl-ethyl)-piperidin-4-yl]-N-[4-(2-methyl-pyridin-4-ylamino)-benzyl]-3-(4-trifluoromethyl-phenyl)-acrylamide], 42 nM. Same read-out and setting: the figure for `CN(c1ccncc1)c1ccc(CN(C(=O)/C=C/c2ccc(C(F)(F)F)cc2)C2CCN(C3CCCC3)C2)cc1` (racemic) [Example 99, (±)-(E)-N-(1-Cyclopentyl-pyrrolidin-3-yl)-N-[4-(methyl-pyridin-4-yl-amino)-benzyl]-3-(4-trifluoromethyl-phenyl)-acrylamide] is 43 nM; for `Cc1cc(Nc2ccc(CN(C(=O)/C=C/c3ccc(C(F)(F)F)cc3)C3CCN(C4CCCC4)C3)cc2)ccn1` (racemic) [Example 101, (±)-(E)-N-(1-Cyclopentyl-pyrrolidin-3-yl)-N-[4-(2-methyl-pyridin-4-ylamino)-benzyl]-3-(4-trifluoromethyl-phenyl)-acrylamide] it is 43 nM.

Compound `CN(c1ccncc1)c1ccc(CN(C(=O)/C=C/c2ccc(C(F)(F)F)cc2)C2CCNCC2)cc1` [Example 1, (E)-N-[4-(Methyl-pyridin-4-yl-amino)-benzyl]-N-piperidin-4-yl-3-(4-trifluoromethyl-phenyl)-acrylamide] yielded an IC50 of 121 nM.

Source of the values: patent publication US9637473B2, “Acrylamide derivatives as antimalarial agents” (priority 2013, dated 2017).
